Laboratory results as given in patent US5256698A, “Treatment of psychosis using cyclohexyl-phenyl-lower alkyl amine derivatives” (University of Iowa Research Foundation, priority 1990, dated 1993).
Entries after “also recorded” stand apart in the source; their conditions may differ.

Columns and labels:
dopaminergic receptors = experiment: binding at dopaminergic receptors (summary of dopamine 1 and 2 binding)
From the text: (§1) Any number for a psychoactive drug over 50% is considered highly significant. By way of example, the following Table 2 illustrates a percentage of specific binding for certain known psychoactives capable of binding at other binding sites which are responsible for the undesirable side effects often associated with psychoactive agents.

Dopamine 2 = Dopamine 2 binding, [^3 H]-Sulpiride; conditions: for Percent Inhibition: Average, N = 2; for Percent Binding: Table 6 (head from Table 5)
From the text: as §1

sigma binding sites [1] = experiment: sigma binding site inhibition: displacement of radiolabelled haldol; conditions: for binding to the sigma binding site (in words): hydrochloride
Description: (§2) The compound prepared in Example 1 was tested for sigma binding site inhibition in comparison with Haldol, a knows selective receptor for sigma binding sites. In particular, a radioligand of haldol was bound to sigma binding sites to provide radio labeled ligands at sigma binding receptor sites of tissue. In the tests, the compound of Example 1 was then added to the cell system to see how successfully it displaced the radioactive ligands at the sigma binding site. The higher the percentage of radio ligand displaced, the greater the percentage of specific binding at the sigma sites.
The compound of Example 2 was tested in a similar fashion to that previously described in order to test comparison with Haldol or sigma binding site activity.

Dopamine 1 = Dopamine 1 binding, [^3 H]-SCH 23390; conditions: for Percent Inhibition: Average, N = 2; for Percent Binding: Table 6 (head from Table 5)
From the text: as §1

PCP = PCP site binding, [^3 H]-TCP; conditions: for Percent Inhibition / Percent Binding: [^3 H]-TCP; for Percent Inhibition: Average, N = 2; for Percent Binding: Table 6 (head from Table 5)
From the text: as §1
[^3 HTCP is a PCP derivative which selectively labels PCP site; PCP i

sigma binding sites [2] = conditions: background; cited from earlier work
sigma = sigma binding capability, [^3 H]-DTG; conditions: for Percent Binding: [^3 H]-DTG
Description: as §2, with “In particular, a radioligand of haldol was bound to sigma binding sites to provide radio labeled ligands at sigma binding receptor sites of tissue.” left out
The following table illustrates testing of sigma binding capability of bromhexine. Again, the test protocol and procedure were as previously described.

CCN(Cc1ccccc1)C1CCCCC1.Cl [Example 1, N-cyclohexyl-N-ethylbenzylamine hydrochloride]
binding to dopaminergic sites (in words) (dopaminergic receptors): excluded from binding at dopaminergic receptors
Percent Inhibition (Dopamine 2; 10^-5 M): 14.8%
Percent Inhibition (Dopamine 2; 10^-7 M): -1.5%
Percent Inhibition (Dopamine 2; 10^-9 M): -1.4%
% Displaced Haldol (sigma binding sites [1]; Table 1, 10^-5 M, 10 µM): 96.0%
% Sigma Site Binding (sigma binding sites [1]; Table 1, 10^-5 M, 10 µM): 4.0%
VERIFICATION % Displaced Haldol (sigma binding sites [1]; Table 1, 10^-5 M, 10 µM): 86.7%
VERIFICATION % Sigma Site Binding (sigma binding sites [1]; Table 1, 10^-5 M, 10 µM): 13.3%
% Displaced Haldol (sigma binding sites [1]; Table 1, 10^-7 M, 0.1 µM): 99.1%
% Sigma Site Binding (sigma binding sites [1]; Table 1, 10^-7 M, 0.1 µM): 0.9%
VERIFICATION % Displaced Haldol (sigma binding sites [1]; Table 1, 10^-7 M, 0.1 µM): 61.1%
VERIFICATION % Sigma Site Binding (sigma binding sites [1]; Table 1, 10^-7 M, 0.1 µM): 38.9%
% Displaced Haldol (sigma binding sites [1]; Table 1, 10^-9 M, 0.001 µM): 27.5%
% Sigma Site Binding (sigma binding sites [1]; Table 1, 10^-9 M, 0.001 µM): 72.5%
VERIFICATION % Displaced Haldol (sigma binding sites [1]; Table 1, 10^-9 M, 0.001 µM): 22.5%
VERIFICATION % Sigma Site Binding (sigma binding sites [1]; Table 1, 10^-9 M, 0.001 µM): 77.5%
binding to the sigma binding site (in words) (sigma binding sites [1]): selectively binds to the sigma binding site
binding to the sigma binding site (in words) (sigma binding sites [1]; listed as N-cyclohexyl-N-ethyl 2-benzylamine): high degree of active sigma binding capability
Percent Inhibition (Dopamine 1; 10^-5 M): 10.7%
Percent Inhibition (Dopamine 1; 10^-7 M): 5.9%
Percent Inhibition (Dopamine 1; 10^-9 M): 3.2%
Percent Inhibition (PCP; 10^-5 M): 25.1%
Percent Inhibition (PCP; 10^-7 M): 7.1%
Percent Inhibition (PCP; 10^-9 M): 9.4%

CCN(CCc1ccccc1)C1CCCCC1.Cl [Example 2, N-cyclohexyl-N-ethyl 2-phenylethylamine hydrochloride]
binding to dopaminergic sites (in words) (dopaminergic receptors): only very weakly binds to the dopaminergic site
Percent Inhibition (Dopamine 2; 10^-5 M): 47.2%
Percent Inhibition (Dopamine 2; 10^-7 M): 7.8%
Percent Inhibition (Dopamine 2; 10^-9 M): 5.9%
% Displaced Haldol (sigma binding sites [1]; Table 3, 10^-5 M, 10 µM): 107.6%
% Sigma Site Binding (sigma binding sites [1]; Table 3, 10^-5 M, 10 µM): -7.6%
VERIFICATION % Displaced Haldol (sigma binding sites [1]; Table 3, 10^-5 M, 10 µM): 91.7%
VERIFICATION % Sigma Site Binding (sigma binding sites [1]; Table 3, 10^-5 M, 10 µM): 8.3%
% Displaced Haldol (sigma binding sites [1]; Table 3, 10^-7 M, 0.1 µM): 84.7%
% Sigma Site Binding (sigma binding sites [1]; Table 3, 10^-7 M, 0.1 µM): 15.3%
VERIFICATION % Displaced Haldol (sigma binding sites [1]; Table 3, 10^-7 M, 0.1 µM): 69.0%
VERIFICATION % Sigma Site Binding (sigma binding sites [1]; Table 3, 10^-7 M, 0.1 µM): 31.0%
% Displaced Haldol (sigma binding sites [1]; Table 3, 10^-9 M, 0.001 µM): 43.2%
% Sigma Site Binding (sigma binding sites [1]; Table 3, 10^-9 M, 0.001 µM): 56.8%
VERIFICATION % Displaced Haldol (sigma binding sites [1]; Table 3, 10^-9 M, 0.001 µM): 33.9%
VERIFICATION % Sigma Site Binding (sigma binding sites [1]; Table 3, 10^-9 M, 0.001 µM): 66.1%
binding to the sigma binding site (in words) (sigma binding sites [1]): binds selectively to the sigma and PCP binding sites
binding to the sigma binding site (in words) (sigma binding sites [1]; listed as N-cyclohexyl-N-ethyl 2-phenylethylamine): high degree of active sigma binding capability
binding to PCP sites (in words) (PCP): binds selectively to the sigma and PCP binding sites
Percent Inhibition (PCP; 10^-5 M): 87.7%
Percent Inhibition (PCP; 10^-7 M): 21.0%
Percent Inhibition (PCP; 10^-9 M): 11.1%

c1ccc(C2(N3CCCCC3)CCCCC2)cc1 [PCP, phencyclidine]
affinity for sigma binding sites (in words) (sigma binding sites [2]): also bind at this site

CN(Cc1cc(Br)cc(Br)c1N)C1CCCCC1 [bromhexine, reference compound]
Percent Binding (sigma; 10^-5 M, 10 µM): 90.8%
Percent Binding (sigma; 10^-7 M, 0.1 µM): 45.1%
Percent Binding (sigma; 10^-9 M, 0.001 µM): 24.8%
sigma binding capability (in words) (sigma; bromhexine): bind to the sigma site; also recorded: high degree of active sigma binding capability
binding to dopaminergic sites (in words) (dopaminergic receptors): negligible
Percent Binding (Dopamine 2; 10^-5 M, 10 µM): 11.9%
Percent Binding (Dopamine 2; 10^-7 M, 0.1 µM): 4.5%
Percent Binding (Dopamine 2; 10^-9 M, 0.001 µM): 5.6%
Percent Binding (Dopamine 1; 10^-5 M, 10 µM): 17.5%
Percent Binding (Dopamine 1; 10^-7 M, 0.1 µM): 10.8%
Percent Binding (Dopamine 1; 10^-9 M, 0.001 µM): 3.9%
binding to PCP sites (in words) (PCP): negligible
Percent Binding (PCP; 10^-5 M, 10 µM): -2.5%
Percent Binding (PCP; 10^-7 M, 0.1 µM): 0.2%
Percent Binding (PCP; 10^-9 M, 0.001 µM): -13.6%

O=C(CCCN1CCC(O)(c2ccc(Cl)cc2)CC1)c1ccc(F)cc1 [haloperidol]
affinity for sigma binding sites (in words) (sigma binding sites [2]): high affinity
